Reference: ChEMBL document CHEMBL3044672, “N9- and N7-(Chloromethyl Phenymethyl)Chloropurine Derivatives from , '-Dichloroxylenes: Synthesis and Anticancer Activity” (2005)

How the values were obtained:
Type in all cases: functional
A549 = test: Cytotoxicity against Homo sapiens (human) A549 cells after 48 hr by sulforhodamine B assay; conditions: A549, 48 h
Hs-578T = test: Cytotoxicity against Homo sapiens (human) Hs 578T cells after 48 hr by sulforhodamine B assay
HCC 2998 = test: Cytotoxicity against Homo sapiens (human) HCC2998 cells after 48 hr by sulforhodamine B assay; conditions: HCC 2998, 48 h
HCT-116 = test: Cytotoxicity against Homo sapiens (human) HCT116 cells after 48 hr by sulforhodamine B assay; conditions: HCT-116, 48 h
SNB-75 = test: Cytotoxicity against Homo sapiens (human) SNB75 cells after 48 hr by sulforhodamine B assay; conditions: SNB-75, 48 h
RXF 393 = test: Cytotoxicity against Homo sapiens (human) RXF393 cells after 48 hr by sulforhodamine B assay; conditions: RXF 393, 48 h
MOLT-4 = test: Cytotoxicity against Homo sapiens (human) MOLT4 cells after 48 hr by sulforhodamine B assay; conditions: MOLT-4, 48 h
COLO 205 = test: Cytotoxicity against Homo sapiens (human) COLO205 cells after 48 hr by sulforhodamine B assay; conditions: COLO 205, 48 h
SK-OV-3 = test: Cytotoxicity against Homo sapiens (human) SKOV3 cells after 48 hr by sulforhodamine B assay; conditions: SK-OV-3, 48 h
KM12 = test: Cytotoxicity against Homo sapiens (human) KM12 cells after 48 hr by sulforhodamine B assay; conditions: KM12, 48 h
RPMI-8226 = test: Cytotoxicity against Homo sapiens (human) RPMI8226 cells after 48 hr by sulforhodamine B assay; conditions: RPMI-8226, 48 h
UACC-257 = test: Cytotoxicity against Homo sapiens (human) UACC257 cells after 48 hr by sulforhodamine B assay; conditions: UACC-257, 48 h
K562 = test: Cytotoxicity against Homo sapiens (human) K562 cells after 48 hr by sulforhodamine B assay; conditions: K562, 48 h
OVCAR-4 = test: Cytotoxicity against Homo sapiens (human) OVCAR4 cells after 48 hr by sulforhodamine B assay; conditions: OVCAR-4, 48 h
NCI-H23 = test: Cytotoxicity against Homo sapiens (human) NCI-H23 cells after 48 hr by sulforhodamine B assay; conditions: NCI-H23, 48 h
SF-268 = test: Cytotoxicity against Homo sapiens (human) SF268 cells after 48 hr by sulforhodamine B assay; conditions: SF-268, 48 h
LOX IMVI = test: Cytotoxicity against Homo sapiens (human) LOXIMVI cells after 48 hr by sulforhodamine B assay
HCT-15 = test: Cytotoxicity against Homo sapiens (human) HCT15 cells after 48 hr by sulforhodamine B assay; conditions: HCT-15, 48 h
CCRF-CEM = test: Cytotoxicity against Homo sapiens (human) CCRF-CEM cells after 48 hr by sulforhodamine B assay
TK-10 = test: Cytotoxicity against Homo sapiens (human) TK10 cells after 48 hr by sulforhodamine B assay; conditions: TK-10, 48 h
NCI-H460 = test: Cytotoxicity against Homo sapiens (human) NCI-H460 cells assessed as cell growth at 10^-4 M after 48 hr by Alamar blue assay; conditions: NCI-H460, 48 h, read-out: Activity
MDA-MB-231 = test: Cytotoxicity against Homo sapiens (human) MDA-MB-231 cells after 48 hr by sulforhodamine B assay; conditions: MDA-MB-231, 48 h
MCF7 = test: Cytotoxicity against Homo sapiens (human) MCF7 cells assessed as cell growth at 10^-4 M after 48 hr by Alamar blue assay; conditions: MCF7, 48 h, read-out: Activity
HOP-62 = test: Cytotoxicity against Homo sapiens (human) HOP62 cells after 48 hr by sulforhodamine B assay; conditions: HOP-62, 48 h
NCI-H522 = test: Cytotoxicity against Homo sapiens (human) NCI-H522 cells after 48 hr by sulforhodamine B assay; conditions: NCI-H522, 48 h
UACC-62 = test: Cytotoxicity against Homo sapiens (human) UACC62 cells after 48 hr by sulforhodamine B assay; conditions: UACC-62, 48 h
[1] = Cytotoxicity against Homo sapiens (human) NCI-ADR-RES cells after 48 hr by sulforhodamine B assay
[2] = read-out: LC50 (the source's name)

For `ClCc1ccc(Cn2cnc3c(Cl)nc(Cl)nc32)cc1`, the GI50 (A549) was 18.6 µM, the TGI (A549) was 37.1 µM and the CC50 (A549; [2]) was 74.1 µM. The GI50 (Hs-578T) was 2.14 µM, the LC50 (Hs-578T) was greater than 100 µM and the TGI (Hs-578T) was 5.75 µM. The GI50 (HCC 2998) was 10.2 µM, the TGI (HCC 2998) was 24 µM and the CC50 (HCC 2998; [2]) was 56.2 µM. For the same compound, the GI50 (HCT-116) was 1.7 µM, the TGI (HCT-116) was 3.63 µM and the CC50 (HCT-116; [2]) was 7.59 µM. It also gave a GI50 (SNB-75) of 3.16 µM, a TGI (SNB-75) of 9.33 µM and a CC50 (SNB-75; [2]) of 45.7 µM. The GI50 (RXF 393) was 20.9 µM, the TGI (RXF 393) was 41.7 µM and the CC50 (RXF 393; [2]) was 83.2 µM. It also gave a GI50 (MOLT-4) of 10.5 µM, a TGI (MOLT-4) of 27.5 µM and a CC50 (MOLT-4; [2]) of 72.4 µM. The GI50 (COLO 205) was 3.47 µM, the TGI (COLO 205) was greater than 100 µM and the CC50 (COLO 205; [2]) was greater than 100 µM. It also gave a GI50 (SK-OV-3) of 13.5 µM, an LC50 (SK-OV-3) of 66.1 µM and a TGI (SK-OV-3) of 29.5 µM. The GI50 (KM12) was 1.82 µM, the TGI (KM12) was 3.24 µM and the CC50 (KM12; [2]) was 5.75 µM. It also gave a GI50 (RPMI-8226) of 1.74 µM, a TGI (RPMI-8226) of 3.8 µM and a GI50 (UACC-257) of 16.2 µM. It also gave an LC50 (concentration killing 50% of cells) (UACC-257) of 69.2 µM, a TGI (UACC-257) of 33.1 µM and a GI50 (K562) of 23.4 µM. For the same compound, the TGI (K562) was 66.1 µM, the CC50 (K562; [2]) was greater than 100 µM and the GI50 (OVCAR-4) was 4.9 µM. The LC50 (concentration killing 50% of cells) (OVCAR-4) was 61.7 µM, the TGI (OVCAR-4) was 18.6 µM and the GI50 (NCI-H23) was 7.59 µM. It also gave a TGI (NCI-H23) of 23.4 µM, a CC50 (NCI-H23; [2]) of 58.9 µM and a GI50 (SF-268) of 2.51 µM. For the same compound, the TGI (SF-268) was 5.37 µM, the CC50 (SF-268; [2]) was 42.7 µM and the GI50 (LOX IMVI) was 2.04 µM. For the same compound, the LC50 (LOX IMVI) was 8.32 µM, the TGI (LOX IMVI) was 4.17 µM and the GI50 (HCT-15) was 1.86 µM. It also gave a TGI (HCT-15) of 3.8 µM, a CC50 (HCT-15; [2]) of 7.59 µM and a GI50 (CCRF-CEM) of 1.95 µM. The TGI (CCRF-CEM) was 4.57 µM, the CC50 (CCRF-CEM; [2]) was 14.1 µM and the GI50 (TK-10) was 6.61 µM. For the same compound, the TGI (TK-10) was 20.4 µM, the CC50 (TK-10; [2]) was 44.7 µM and the growth at 100 µM (NCI-H460) was 0%. It also gave a GI50 (MDA-MB-231) of 1.82 µM, an LC50 (MDA-MB-231) of 7.24 µM and a TGI (MDA-MB-231) of 3.63 µM. It also gave a growth at 100 µM (MCF7) of 0%, a GI50 (HOP-62) of 2.19 µM and a TGI (HOP-62) of 5.13 µM. For the same compound, the CC50 (HOP-62; [2]) was 19.5 µM, the GI50 (NCI-H522) was 22.4 µM and the TGI (NCI-H522) was 46.8 µM. For the same compound, the CC50 (NCI-H522; [2]) was 97.7 µM, the GI50 (UACC-62) was 2.04 µM and the LC50 (concentration causing 50% net cell kill) (UACC-62) was 9.33 µM. It also gave a TGI (UACC-62) of 4.37 µM, a GI50 [1] of 16.6 µM and an LC50 (concentration killing 50% of cells) [1] greater than 100 µM. It also gave a TGI [1] greater than 100 µM.
